Results reported in patent US20040121009A1, “Method of modifying the release profile of sustained release compositions” (Alkermes Controlled Therapeutics, Inc., priority 2002, published 2004).

Legend:
[1] = for amount of peripheral fibrosis surrounding the microsphere depot in the subcutis / intensity of the granulomatous inflammatory reaction within the microsphere mass: co-administration with EPO-containing microparticles; for color of the skin overlying microsphere depots: rat, in vivo
Description: Animals were anesthetized with 5% halothane. Each animal was shaved and the back swabbed with alcohol. […] The microparticles were prepared as described above. The microparticles were injected into an interscapular site using a 21 gauge thinwall needle attached to a 1 mL syringe. Animals were dosed to receive a total of 10,000 U EPO either alone (Group A) or in combination with a total of 5 mg of hydrocortisone acetate (Group B), or 1 mg (Group C) or 5 mg (Group D) of triamcinolone diacetate. Animals were followed for 35 days post implantation.

[2] = Example 1: hematocrit testing; assay type: in vivo, rat; details: day 36; EPO microparticles plus 1 mg secondary agent (Group C)
Description: Animals were anesthetized with 5% halothane. […] The microparticles were prepared as described above. […] Hematocrits were evaluated manually following centrifugation for 5 minutes at 8000 rpm (on four animals per group) using a capillary tube.

[3] = Example 3: hematocrit testing; assay type: in vivo, rat; details: day 19 (maximum for corticosteroid groups); Groups A, B, C of Table 3
Description: (§1) Animals were dosed to receive a total of 10,000 Units of EPO in combination with a total of 100 mg of placebo microparticles (Group A), 5 mg of triamcinolone acetonide and 100 mg of placebo microparticles admixed (Group B) and 100 mg of 20% w/w hydrocortisone-containing microparticles (Group C). Sample collection time points were pre-bleed, 1, 2, 6, 12, 19, and 26 days.
To evaluate EPO serum levels, 0.4 mL samples were collected via tail vein on the days specified in Table 3 (four animals per group). After clotting, the samples were centrifuged and frozen (−70° C.). Serum EPO levels were quantitated by ELISA (R&D Systems), according to the manufacturer's instructions (Cat. No. DEP00, and the data were normalized for dose and body weight. Starting on day 12, serum samples were also assessed for EPO antibody levels weekly, using an ELISA This assay detects all antibody subclasses inasmuch as the detecting antibody is reactive with both immunoglobulin heavy (γ) and light chains. Hematocrit analyses were carried out as described in Example 1, and were tested at the following intervals relative to time of microsparticle administration: pre-bleed, 1, 2, 6, 12, 19, and 26 days.

anti-EPO antibody = test: Example 3: immunogenicity, anti-EPO antibody ELISA of sera; assay type: in vivo, rat
[4] = Example 3: serum EPO levels by ELISA; assay type: in vivo, rat; details: 10,000 U EPO microparticles plus 100 mg placebo microparticles (A), 5 mg triamcinolone acetonide admixed with 100 mg placebo microparticles (B) or 100 mg 20% hydrocortisone microparticles (C)
Description: as §1
To evaluate EPO serum levels, 0.4 mL samples were collected via tail vein on the days specified in Table 3 (four animals per group). After clotting, the samples were centrifuged and frozen (−70° C.).

color of the skin overlying microsphere depots [1]	anti-EPO antibody titer (anti-EPO antibody; day 19, the one positive animal of Group B)	EPO antibody titer as percentage of the titer in the control group (anti-EPO antibody; day 33)	average serum EPO levels (steady state) between day 6 and day 19 [4] [mU/mL]	Compound	amount of peripheral fibrosis surrounding the microsphere depot in the subcutis [1]	intensity of the granulomatous inflammatory reaction within the microsphere mass [1]	hematocrit values [2]	hematocrit values [3]	incidence of animals with anti-EPO antibodies (anti-EPO antibody; day 19, n=4/group)	incidence of animals with anti-EPO antibodies (anti-EPO antibody; day 33) [%]
pallid in most rats	–	–	–	CC(=O)OCC(=O)[C@@]1(O)[C@H](OC(C)=O)C[C@H]2[C@@H]3CCC4=CC(=O)C=C[C@]4(C)[C@@]3(F)[C@@H](O)C[C@@]21C [triamcinolone diacetate]	diminished	reduced	mid-60%	–	–	–
–	1800	about 50%	148.6±102.9	CC1(C)O[C@@H]2C[C@H]3[C@@H]4CCC5=CC(=O)C=C[C@]5(C)[C@@]4(F)[C@@H](O)C[C@]3(C)[C@]2(C(=O)CO)O1 [triamcinolone acetonide]	–	–	–	69.3%±3.3	only one animal	75
pallid in most rats	–	–	–	CC(=O)OCC(=O)[C@@]1(O)CC[C@H]2[C@@H]3CCC4=CC(=O)CC[C@]4(C)[C@H]3[C@@H](O)C[C@@]21C [hydrocortisone acetate]	diminished	reduced	–	–	–	–
